Source: ChEMBL document CHEMBL3621185, “Progress in the development of fatty acid synthase inhibitors as anticancer targets” (Bioorg Med Chem Lett, 2015)

Key:
[1] = Cytotoxicity against human PC-3M-luc-C6 cells; type: functional, cell-based
A2780 = assay: Cytotoxicity against human A2780 cells; type: functional, cell-based
Fatty acid synthase [2] = target: T1, Fatty acid synthase (Homo sapiens, UniProt P49327); assay: Inhibition of fatty acid synthase KR domain (unknown origin)
[3] = Cytotoxicity against human MCF10A cells; type: functional, cell-based; details: MCF-10A
Fatty acid synthase [4] = target: T1, Fatty acid synthase; assay: Inhibition of fatty acid synthase (unknown origin)

T1 sequence (P49327 whole entry, the tested form may be a part): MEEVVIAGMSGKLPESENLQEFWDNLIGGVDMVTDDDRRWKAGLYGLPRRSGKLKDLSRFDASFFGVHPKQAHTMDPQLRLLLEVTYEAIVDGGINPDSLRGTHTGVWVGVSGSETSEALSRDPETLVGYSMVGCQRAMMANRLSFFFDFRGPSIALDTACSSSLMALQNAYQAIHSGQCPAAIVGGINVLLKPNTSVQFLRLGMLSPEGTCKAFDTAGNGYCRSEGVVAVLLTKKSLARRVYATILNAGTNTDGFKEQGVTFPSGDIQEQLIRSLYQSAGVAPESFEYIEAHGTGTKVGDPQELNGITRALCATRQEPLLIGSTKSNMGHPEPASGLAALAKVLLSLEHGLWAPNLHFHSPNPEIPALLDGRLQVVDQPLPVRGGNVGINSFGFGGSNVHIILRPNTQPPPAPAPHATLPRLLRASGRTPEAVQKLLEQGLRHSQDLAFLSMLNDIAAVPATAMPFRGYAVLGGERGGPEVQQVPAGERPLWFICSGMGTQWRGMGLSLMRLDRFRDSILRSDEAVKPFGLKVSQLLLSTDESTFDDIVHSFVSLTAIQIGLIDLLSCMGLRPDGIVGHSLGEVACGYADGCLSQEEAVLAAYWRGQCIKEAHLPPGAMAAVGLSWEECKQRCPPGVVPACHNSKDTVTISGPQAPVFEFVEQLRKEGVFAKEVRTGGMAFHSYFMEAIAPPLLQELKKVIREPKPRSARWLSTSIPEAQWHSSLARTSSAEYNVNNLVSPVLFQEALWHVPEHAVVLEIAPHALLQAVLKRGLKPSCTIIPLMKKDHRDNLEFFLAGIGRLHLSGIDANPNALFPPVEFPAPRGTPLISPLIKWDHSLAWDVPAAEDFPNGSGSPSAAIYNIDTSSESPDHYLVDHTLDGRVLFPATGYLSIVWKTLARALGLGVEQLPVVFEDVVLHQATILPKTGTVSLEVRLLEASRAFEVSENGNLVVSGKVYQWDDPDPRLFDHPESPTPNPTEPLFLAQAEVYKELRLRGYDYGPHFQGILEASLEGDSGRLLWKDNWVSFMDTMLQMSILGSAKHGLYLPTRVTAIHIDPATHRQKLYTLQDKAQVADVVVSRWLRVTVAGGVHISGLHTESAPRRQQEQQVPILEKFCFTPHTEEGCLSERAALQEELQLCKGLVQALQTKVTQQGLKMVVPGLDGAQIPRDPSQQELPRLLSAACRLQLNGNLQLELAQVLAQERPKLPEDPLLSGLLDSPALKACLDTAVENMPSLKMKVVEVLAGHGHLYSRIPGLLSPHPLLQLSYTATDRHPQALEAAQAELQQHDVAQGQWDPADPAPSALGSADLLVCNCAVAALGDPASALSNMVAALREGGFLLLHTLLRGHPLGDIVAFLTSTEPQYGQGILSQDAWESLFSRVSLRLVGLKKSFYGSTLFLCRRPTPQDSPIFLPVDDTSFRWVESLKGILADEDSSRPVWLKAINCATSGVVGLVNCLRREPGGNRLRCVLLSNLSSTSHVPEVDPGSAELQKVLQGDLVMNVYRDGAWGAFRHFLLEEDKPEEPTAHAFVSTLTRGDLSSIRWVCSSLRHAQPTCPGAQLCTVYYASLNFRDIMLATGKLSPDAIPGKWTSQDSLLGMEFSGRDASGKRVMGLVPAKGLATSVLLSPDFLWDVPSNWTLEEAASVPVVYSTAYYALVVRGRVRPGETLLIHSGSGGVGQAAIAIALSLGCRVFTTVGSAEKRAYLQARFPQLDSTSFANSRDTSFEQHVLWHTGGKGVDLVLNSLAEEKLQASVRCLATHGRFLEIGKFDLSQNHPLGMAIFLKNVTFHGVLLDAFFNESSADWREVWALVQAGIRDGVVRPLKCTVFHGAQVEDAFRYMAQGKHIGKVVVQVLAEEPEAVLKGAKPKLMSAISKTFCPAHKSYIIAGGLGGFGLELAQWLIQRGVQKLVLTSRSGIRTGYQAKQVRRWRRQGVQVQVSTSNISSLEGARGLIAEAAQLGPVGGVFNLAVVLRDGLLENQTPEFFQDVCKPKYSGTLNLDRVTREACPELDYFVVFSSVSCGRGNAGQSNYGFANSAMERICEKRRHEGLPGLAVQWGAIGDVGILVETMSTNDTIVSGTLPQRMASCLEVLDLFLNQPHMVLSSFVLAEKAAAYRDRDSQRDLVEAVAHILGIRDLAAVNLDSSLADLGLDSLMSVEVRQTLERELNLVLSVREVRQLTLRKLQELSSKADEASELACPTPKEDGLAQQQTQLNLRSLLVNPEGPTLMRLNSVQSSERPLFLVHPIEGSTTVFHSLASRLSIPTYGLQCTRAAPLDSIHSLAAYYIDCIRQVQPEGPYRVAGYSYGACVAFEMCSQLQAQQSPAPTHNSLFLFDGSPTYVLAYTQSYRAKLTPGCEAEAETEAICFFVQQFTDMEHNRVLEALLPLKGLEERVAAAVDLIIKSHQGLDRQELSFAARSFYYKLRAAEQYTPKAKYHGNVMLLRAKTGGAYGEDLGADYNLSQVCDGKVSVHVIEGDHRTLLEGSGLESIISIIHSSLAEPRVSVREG

**Q.** With `CC1(C)N=C(c2ccc(-c3c[nH]c4ccccc34)cc2)N(C[C@@H]2CCN(C(=O)C3CC3)C2)C1=O` as the compound, how does the IC50 [1] read?
**A.** Its IC50 is 8 nM.

**Q.** What about the IC50 (A2780) of the same compound?
**A.** The IC50 was 3 nM.

**Q.** What about the IC50 (Fatty acid synthase [2]) of the same compound?
**A.** Its IC50 is 41 nM.

**Q.** Which IC50 [3] does the source give for `Cc1cc(C)cc(N2C(=O)NC(=O)/C(=C\c3ccc(-c4ccccc4)o3)C2=O)c1` here?
**A.** The IC50 was 24300 nM.

**Q.** With `O=C(C1CC1)N1CC[C@@H](Cc2n[nH]c(=O)n2-c2ccc(-c3ccc4ccncc4c3)cc2F)C1` as the compound, how does the IC50 (Fatty acid synthase [4]) read?
**A.** Its IC50 is 3 nM.

**Q.** With `CN(C[C@@H]1CCN(C(=O)C2CC2)C1)C(=O)c1ccc(-c2ccc3[nH]ccc3c2)cc1F` as the compound, how does the IC50 (Fatty acid synthase [4]) read?
**A.** Its IC50 is 20 nM.

**Q.** Which IC50 [1] does the source give for `Cc1ccc(C(=O)N2CCC(c3ccc4nncn4c3)CC2)cc1NC(=O)c1ccc(Cl)nc1` here?
**A.** The IC50 was 35 nM.

**Q.** And the IC50 (A2780)?
**A.** The IC50 was 41 nM.

**Q.** What about the IC50 (Fatty acid synthase [2]) of the same compound?
**A.** Its IC50 is 93 nM.

**Q.** For `O=C(C1CC1)N1CCC(Cn2cnnc2-c2ccc(-c3ccc4[nH]ncc4c3)cc2)C1` (single isomer, unassigned), which IC50 (Fatty acid synthase [4]) is on record?
**A.** Its IC50 is 13 nM.

**Q.** With `O=C1COC2(CCN(S(=O)(=O)c3ccc(-c4cccc5cnccc45)cc3)CC2)CN1C1CC1` as the compound, how does the IC50 (Fatty acid synthase [4]) read?
**A.** The IC50 was 6 nM.

**Q.** With `N#Cc1ccc2cc(N3CCN(S(=O)(=O)N4CCC5(CC4)CN(C4CC4)C(=O)CO5)CC3)ccc2c1` as the compound, how does the IC50 (Fatty acid synthase [4]) read?
**A.** Its IC50 is 10 nM.
